Here are results for four compounds from patent US11787775B2, “Therapeutic compounds and methods of use” (priority 2020, dated 2023).

What all share (format): binding
Assay [1] concerns the target TEAD1 (Homo sapiens (Human), UniProt P28347). As to the kind of experiment: TEAD lipid pocket TR-FRET (Lipid HTRF) probe competition assay. The note with it: 30 mins incubation with compound; read-out: Lipid HTRF TEAD1 IC50. On the technique in general: TR-FRET usually uses a lanthanide donor and a delayed reading to cut background.
In assay [2] the target is TEAD2 (Homo sapiens (Human), UniProt Q15562). Described as above. The note with it: 30 mins incubation with compound; read-out: Lipid HTRF TEAD2 IC50.
TEAD2, sequence (Q15562 whole entry): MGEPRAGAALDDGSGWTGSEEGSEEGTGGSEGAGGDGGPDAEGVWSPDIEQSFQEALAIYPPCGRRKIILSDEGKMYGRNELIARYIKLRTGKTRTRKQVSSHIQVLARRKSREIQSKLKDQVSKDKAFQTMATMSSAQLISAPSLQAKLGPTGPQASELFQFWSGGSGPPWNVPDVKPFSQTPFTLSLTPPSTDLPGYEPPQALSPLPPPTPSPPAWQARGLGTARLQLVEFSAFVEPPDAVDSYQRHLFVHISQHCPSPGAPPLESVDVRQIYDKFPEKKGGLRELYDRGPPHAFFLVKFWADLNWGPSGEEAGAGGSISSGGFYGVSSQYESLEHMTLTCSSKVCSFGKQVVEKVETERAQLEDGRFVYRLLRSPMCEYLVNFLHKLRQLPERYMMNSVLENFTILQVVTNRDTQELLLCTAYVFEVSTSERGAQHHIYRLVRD
Assay [3] has as its target TEAD3 (Homo sapiens (Human), UniProt Q99594). The assay is described as above. The note with it: 30 mins incubation with compound.
Assay [4] has as its target TEAD4 (Homo sapiens (Human), UniProt Q15561). Described as above. The note with it: 30 mins incubation with compound; read-out: Lipid HTRF TEAD4 IC50.
The target of assay [5] is TEAD1 YAP50-100 (Homo sapiens (Human), UniProt P28347). The assay is described as follows: TEAD-YAP protein-protein interaction HTRF assay. The note with it: TEAD1 YAP50-100 HTRF combined EC50, 30 mins incubation with compound. On the procedure:
(§1) Purified His-tagged TEAD protein (YAP Binding Domain, amino acids 217-447) is pre-incubated with Europium labelled anti-His antibody tracer (Perkin Elmer Cat #AD0110). Small molecule Inhibitors are then incubated with the TEAD-Eu protein complex for 30 minutes or 4 hours to allow for binding to TEAD protein. Biotinylated YAP peptide for TEAD-YAP assays (AA's 50-100) or biotinylated TAZ peptide for TEAD-TAZ assays (AA's 13-57) that has been pre-incubated with streptavidin −xl665 acceptor (CIS-Bio Cat #610SAXAC) or is added to the compound-TEAD mix. The TEAD-YAP-inhibitor mixture is then incubated for 60 minutes at room temperature. All reactions are carried out in a polystyrene plate. After 60 minutes, the plate is read on a plate reader using TR-FRET mode with wavelengths of 665 nm/615 nm. If YAP or TAZ binds to TEAD as expected, a TR-FRET signal results from the proximity of YAP or TAZ and TEAD after binding. If an inhibitor such as peptide 17 (Selleckchem Cat #S8164) interferes with YAP-TEAD or TAZ-TEAD binding, the disruption of the YAP or TAZ:TEAD interaction results in a decrease in TR-FRET signal. The potency of compounds as YAP:TEAD or TAZ:TEAD protein-protein interaction (PPi) inhibitors is determined by an IC50 or EC50 value generated using a non-linear four parameter curve fit. The extent to which representative examples of the disclosed compounds are able to inhibit interaction between TEAD1, TEAD2, TEAD3 or TEAD4 and YAP truncated from amino acids 50-100 or TAZ truncated from amino acids 13-57 as measured by Homogeneous Time Resolved Fluorescence (HTRF) to generate EC50 and IC50 data.
(§2) Note that the “Compound Number” in Table 4 corresponds to the “Compound Number” in Table 1. […]

The target in assay [6] is TEAD2 YAP50-100 (Homo sapiens (Human), UniProt Q15562). The assay is described as follows: TEAD-YAP protein-protein interaction HTRF assay. The note with it: TEAD2 YAP50-100 HTRF combined EC50, 30 mins incubation with compound. The procedure: as §1, §2
TEAD2 YAP50-100, sequence (Q15562 217-447): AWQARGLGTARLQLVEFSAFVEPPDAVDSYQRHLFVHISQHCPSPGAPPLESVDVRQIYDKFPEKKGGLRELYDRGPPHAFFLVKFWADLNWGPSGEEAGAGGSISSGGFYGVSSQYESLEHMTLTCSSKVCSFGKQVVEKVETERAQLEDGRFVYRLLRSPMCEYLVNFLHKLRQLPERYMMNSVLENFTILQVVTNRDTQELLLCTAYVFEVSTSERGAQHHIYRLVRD
Assay [7] addresses TEAD3 YAP50-100 (Homo sapiens (Human), UniProt Q99594). The assay is described as follows: TEAD-YAP protein-protein interaction HTRF assay. The note with it: TEAD3 YAP50-100 HTRF combined EC50, 30 mins incubation with compound. On the procedure: as §1, §2
Assay [8] has as its target TEAD4 YAP50-100 (Homo sapiens (Human), UniProt Q15561). The assay is described as follows: TEAD-YAP protein-protein interaction HTRF assay. The note with it: TEAD4 YAP50-100 HTRF combined EC50, 30 mins incubation with compound. The procedure: as §1, §2

As usually defined, the IC50 is the point on the concentration scale where inhibition reaches its midpoint. For orientation: EC50 means the concentration at which the effect is half-maximal.

TEAD1, sequence (P28347 whole entry, species assumed): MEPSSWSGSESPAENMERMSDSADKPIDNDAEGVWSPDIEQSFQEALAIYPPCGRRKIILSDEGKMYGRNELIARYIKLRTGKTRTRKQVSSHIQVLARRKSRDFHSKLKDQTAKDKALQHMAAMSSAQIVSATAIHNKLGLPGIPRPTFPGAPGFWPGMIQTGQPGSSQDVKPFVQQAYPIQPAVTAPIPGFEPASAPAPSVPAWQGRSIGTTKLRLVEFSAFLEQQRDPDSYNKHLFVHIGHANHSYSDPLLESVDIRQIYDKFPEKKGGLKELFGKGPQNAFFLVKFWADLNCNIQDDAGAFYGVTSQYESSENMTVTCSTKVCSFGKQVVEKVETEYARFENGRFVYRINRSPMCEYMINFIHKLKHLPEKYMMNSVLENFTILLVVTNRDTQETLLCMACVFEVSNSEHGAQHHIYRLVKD
TEAD1 YAP50-100, sequence (P28347 209-426): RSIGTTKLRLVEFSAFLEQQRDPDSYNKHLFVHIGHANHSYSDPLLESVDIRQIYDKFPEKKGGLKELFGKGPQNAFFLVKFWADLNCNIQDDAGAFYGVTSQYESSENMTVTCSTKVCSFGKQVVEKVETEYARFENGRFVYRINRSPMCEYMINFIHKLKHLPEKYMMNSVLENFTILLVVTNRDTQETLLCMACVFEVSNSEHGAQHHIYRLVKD
TEAD3, sequence (Q99594 whole entry, species assumed): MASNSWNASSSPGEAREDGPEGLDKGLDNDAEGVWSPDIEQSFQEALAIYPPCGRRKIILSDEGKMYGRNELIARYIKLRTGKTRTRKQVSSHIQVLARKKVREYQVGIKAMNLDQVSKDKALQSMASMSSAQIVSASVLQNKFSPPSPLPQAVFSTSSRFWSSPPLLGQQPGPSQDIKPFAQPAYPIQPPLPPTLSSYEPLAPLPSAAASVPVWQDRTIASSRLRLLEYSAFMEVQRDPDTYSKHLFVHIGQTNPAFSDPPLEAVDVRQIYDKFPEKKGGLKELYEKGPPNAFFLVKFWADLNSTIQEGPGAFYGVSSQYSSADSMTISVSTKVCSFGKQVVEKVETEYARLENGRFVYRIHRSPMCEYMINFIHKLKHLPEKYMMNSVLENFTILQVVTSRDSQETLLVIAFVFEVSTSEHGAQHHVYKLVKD
TEAD4, sequence (Q15561 whole entry, species assumed): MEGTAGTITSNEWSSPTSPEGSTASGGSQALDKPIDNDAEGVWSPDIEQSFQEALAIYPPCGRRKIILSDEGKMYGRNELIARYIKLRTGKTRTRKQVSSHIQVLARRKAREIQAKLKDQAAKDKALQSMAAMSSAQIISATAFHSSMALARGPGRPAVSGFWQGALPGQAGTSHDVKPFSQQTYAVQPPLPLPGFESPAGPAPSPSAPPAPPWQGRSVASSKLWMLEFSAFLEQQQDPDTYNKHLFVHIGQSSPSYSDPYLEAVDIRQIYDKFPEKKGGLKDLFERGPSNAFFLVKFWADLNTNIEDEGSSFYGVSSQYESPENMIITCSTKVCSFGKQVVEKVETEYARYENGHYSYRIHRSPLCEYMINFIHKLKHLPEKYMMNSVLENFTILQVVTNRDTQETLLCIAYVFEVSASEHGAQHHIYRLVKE
TEAD3 YAP50-100, sequence (Q99594 218-435): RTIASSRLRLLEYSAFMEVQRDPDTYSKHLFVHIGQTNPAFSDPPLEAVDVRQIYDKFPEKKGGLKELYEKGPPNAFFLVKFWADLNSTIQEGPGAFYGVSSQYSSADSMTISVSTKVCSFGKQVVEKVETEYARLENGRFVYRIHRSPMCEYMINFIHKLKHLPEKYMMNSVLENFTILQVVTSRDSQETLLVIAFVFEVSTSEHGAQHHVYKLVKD
TEAD4 YAP50-100, sequence (Q15561 217-434): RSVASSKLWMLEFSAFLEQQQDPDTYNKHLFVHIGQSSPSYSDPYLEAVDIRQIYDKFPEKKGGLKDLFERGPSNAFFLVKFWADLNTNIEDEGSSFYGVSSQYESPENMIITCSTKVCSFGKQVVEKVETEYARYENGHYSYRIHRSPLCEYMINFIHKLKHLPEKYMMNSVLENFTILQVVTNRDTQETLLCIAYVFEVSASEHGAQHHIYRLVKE

With `C=C(CNc1cc(-c2ccc(C(C)C)cc2)c2c(c1C(N)=O)CCO2)C(=O)O` [Compound 34, 2-[[[4-carbamoyl-7-(4-isopropylphenyl)-2,3-dihydrobenzofuran-5-yl]amino]methyl]prop-2-enoic acid], the IC50 in assay [1] was 1.8 µM; in assay [2] it was 0.97 µM; in assay [3] it was greater than 50 µM; in assay [4] it was 0.33 µM. In addition, the EC50 in assay [5] is 1 µM; in assay [6], 0.58 µM; in assay [7], greater than 50 µM; in assay [8], 0.7 µM.
Consider `C=C(CNc1cc(-c2ccc(OC(F)(F)F)cc2)c2ncsc2c1C#N)C(N)=O` [Compound 42, 2-[[[7-cyano-4-[4-(trifluoromethoxy)phenyl]-1,3-benzothiazol-6-yl]amino]methyl]prop-2-enamide], for which the IC50 in assay [1] is 0.37 µM; in assay [2], 0.14 µM; in assay [3], greater than 50 µM; in assay [4] it was 0.26 µM. The EC50 in assay [5], in assay [6], in assay [7] and in assay [8] was greater than 50 µM each time.
For `C=C(CNc1cc(-c2ccc(C(C)C)cn2)c2c(c1C#N)CCO2)C(=O)O` [Compound 47, 2-[[[4-cyano-7-(5-isopropyl-2-pyridyl)-2,3-dihydrobenzofuran-5-yl]amino]methyl]prop-2-enoic acid], the IC50 in assay [1] is 2.2 µM; in assay [2], 2.7 µM; in assay [3], greater than 50 µM; in assay [4], 1.5 µM. The EC50 in assay [5] was 1.9 µM; in assay [6] it was 1.9 µM; in assay [7], greater than 50 µM; in assay [8], 3.4 µM.
For the compound `C=C(CNc1cc(-c2ccc(C(C)C)cc2)c2c(c1S(C)(=O)=O)CCO2)C(=O)O` [Compound 50, 2-[[[7-(4-isopropylphenyl)-4-methylsulfonyl-2,3-dihydrobenzofuran-5-yl]amino]methyl]prop-2-enoic acid], the half-maximal inhibitory concentration (IC50) in assay [1] turned out to be 0.74 µM; in assay [2], 0.1 µM; in assay [3], 44.5 µM; in assay [4], 0.59 µM. The EC50 was 0.53 µM in assay [5], 0.08 µM in assay [6], 17 µM in assay [7] and 2 µM in assay [8].
